Where “and” joins values, the source holds several entries; their conditions need not be identical. Identical values can stand only once. Like-named read-outs stand apart in the source and are kept apart here.
Legend:
[1] = test system: HL60 promyelocytic leukemia cell line; assay: Cell survival assay, HL60; assay type: cell-based; conditions: for Phototoxicity Index, PI HL60: ratio of dark and light IC50
Procedure: (§1) The HL60 promyelocytic leukemia cell line was obtained from ATCC and cultured in IMDM media (Invitrogen; Carlsbad, Calif.) supplemented with 10% serum supreme (Lonza; Basel, Switzerland) and penicillin/streptomycin at 37° C. with 5% CO2. The A549 cell line was donated and cultured in DMEM supplemented with glutamax, 10% serum supreme, and penicillin/streptomycin at 37° C. with 5% CO2. Cells were plated in Optimem (Life Technologies; Carlsbad, Calif.) supplemented with 1% serum supreme and penicillin/streptomycin at 30,000 cells per well in Costar 96 well flat bottom clear tissue culture treated plates for HL60 and 1500 cells/well for A549. […] The cells were then incubated for 72 hours followed by the addition of Cell Titer Glo (Promega; Madison, Wis.) to determine viability. Dark controls were run in parallel. The resulting luminescence was measured using the SpectraFluor Plus Plate Reader (Tecan). Data were fit to an equation for a sigmoidal dose response using the equation below, where yi and yf are the initial and final signal intensities.
(§2) Cell cytotoxicity studies were performed in HL60 leukemia cells and A549 lung cancer cells (see FIG. 7 and Table 3). Cells were incubated with compounds for 12 hours in the dark before irradiated with >450 nm light (410 W) for 3 minutes. Dark controls were run in parallel. Cell survival was quantified 72 hours later through the use of an ATP luciferase assay, and confirmed by Trypan Blue staining and manual counting.

A549 lung cancer cells = assay: Cell survival assay, A549 monolayer; assay type: cell-based; conditions: for Phototoxicity Index, PI A549: ratio of dark and light IC50
Procedure: as §1, §2

A549 tumor spheroids = assay: A549 tumor spheroid cytotoxicity; assay type: cell-based; conditions: for MCR Index: ratio of spheroid and monolayer culture IC50
Procedure: A549 cells were seeded at 2,500 cells/well in 1.5% agarose coated 96-well plates. After 7 days the spheroids were dosed with compounds and incubated for 12 hrs. […] Cellular viability was determined 72 hours after light activation for the irradiated samples and at the same time point for the dark samples by measuring ATP concentration with CellTiter Glo (Promega). Data were fit to an equation for sigmoidal dose response shown above using the Prism software package.
3D tumor spheroids were used to test the compounds. Spheroids provide a system that approximates the complexity of in vivo tumors. These spheroids mimic the pathophysiology of tumors, including hypoxic/necrotic regions, changes in cell shape, high proportions of quiescent cells, alterations in gene expression profiles, and diminished permeability to drugs. […] To characterize the light-activated ruthenium compounds under more challenging and biologically relevant conditions, efficacy was assessed in a 3D tumor model by forming tumor spheroids with A549 cells.
Spheroids of about 600 μm in diameter were dosed with compounds and then either kept in the dark or irradiated with >450 nm light for 3 minutes.

[2] = test system: HL-60 human leukemia cell line; assay: Cytotoxicity in HL-60 cells, dark and irradiated (Example 1); assay type: cell-based
Procedure: Cytotoxicity studies were performed to determine if the light-induced DNA damage translated to biological activity in cancer cells. […] The compounds were incubated with the cells for 12 hours prior to irradiation with blue (>400 nm), red (>600 nm), and near-IR (>650 nm) light (Table 2). […] Increasing the light dose increased the observed potency. […] A phototoxicity index (PI) value (the toxicity in the dark vs. the light) of 43 was found with blue light for compound 1.

pUC19 plasmid [3] = assay: Glutathione assay: pUC19 crosslinking with increasing GSH; assay type: biochemical; conditions: 30 μM compound, 0.01-40 mM GSH; 4 light-activated
Procedure: The concentrations of GSH were 0.01, 0.1, 1, 10, 40 mM, giving a molar ratio between the compounds and glutathione of a) 1:0.3, b) 1:3.3, c) 1:33, d) 1:333, e) 1:1333. […] Control reactions with pUC19 in the presence and absence of GSH were carried out for 12 hrs in the dark with 25 μg/ml plasmid and 40 mM GSH in 10 mM phosphate buffer, pH 7.5. The plasmid was resolved on a 1% agarose gel as described above.
(§3) The photoactivated DNA crosslinking Ru(bpy)2 species retained its ability to damage DNA, even at higher GSH concentrations.

[4] = test system: HL60 leukemia cells and A549 lung cancer cells; assay: Cell cytotoxicity studies, summary over HL60 and A549; assay type: cell-based; conditions: for activity light versus dark: >450 nm light 3 minutes vs dark
Procedure: as §1, §2

HL60 cells [5] = assay: Western blot of PARP and caspase 3 cleavage; assay type: cell-based, human; conditions: protected from light and irradiated
Procedure: Given the different cellular localization properties and time profiles for cell death induced by 9 and 10, the mechanism of cell death was investigated. Indicators of apoptotic cell death (activation of PARP and caspase 3 through proteolysis) were determined in HL60 cells treated with either 9 or 10 (FIGS. 15A and 15B).
The generation of an alternate 55 kDa PARP fragment was determined by immunoblot as a marker for necrosis with 10% (v/v) ethanol used as a control that induces necrosis.

HL60 cells [6] = assay: Genomic DNA laddering by gel electrophoresis; assay type: cell-based, human; conditions: dark / not irradiated
Description: To further analyze the mechanisms of cell death induced by 9 and 10, the degradation pattern of genomic DNA was investigated. DNA laddering was observed as a result of DNA fragmentation stemming from the execution phase of apoptosis. In contrast, necrotic cell death lacked this characteristic laddering effect, allowing differentiation between these two mechanisms. […] This laddering was absent in the cells treated with ethanol and compounds 9 and 10 in the dark. […] In contrast, given the cytotoxicity of 9 in the dark and the presence of the 55 kDa PARP fragment, it appears that necrotic cell death is one pathway for […]. For compound 10 the absence of DNA laddering may be a result of the lack of cytotoxicity of the negatively charged compound.

[7] = Light and dark cytotoxicity of exemplary compounds (Table 6); assay type: cell-based; conditions: for IC50: cell line not stated; for Phototoxicity Index: dark IC50/light IC50
Description: This Example describes additional specific embodiments the presently-disclosed subject matter. […] The methods for making and characterizing the compounds are based on the methodologies described in the previous examples.

pUC19 plasmid [8] = assay: Plasmid-compound gel analysis (Example 2); conditions: visible light 200 W, 1 hour
[9] = Interaction of prodrug compounds with GSH by UV/Vis spectroscopy; assay type: physicochemical; conditions: period of days
Description: as §3

CT DNA = assay: DNA binding affinity (Kb) with CT DNA; set-up: species or system calf; conditions: racemic mixtures
Description: Intercalation of both complexes was consistent with the reduced mobility of supercoiled plasmid DNA in agarose gels, and the modulation of the absorption spectra in the presence of DNA, characterized by hypochromism of both the π-π* of the dppz ligand and the MLCT transitions, with maximal effect at a ratio of 2:1 DNA base pairs to metal center. Thus, the strained complex retained DNA-sensing capabilities of other Ru^II “light-switch” molecules and photochemical reactivity.

[10] = 3 min >450 nm light, 72 hours, read-out: Light IC50 HL60
[11] = 3 min >450 nm light, 72 hours, read-out: Light IC50 A549
[12] = dark, read-out: Dark IC50 A549 spheroid
[13] = 3 min >450 nm light, 72 hours, read-out: Light IC50 A549 spheroid

Cl.NCC(=O)CCC(=O)O [ALA, 5-aminolevulinic acid hydrochloride, reference compound]
IC50 ([1]; Homo sapiens, HL-60, 3 min >450 nm light, 72 hours, read-out: Light IC50 HL60): 16.2 µM | IC50 ([1]; Homo sapiens, HL-60, read-out: Dark IC50 HL60): > 300 µM | Phototoxicity Index, PI HL60 [1]: >18 | IC50 (A549 lung cancer cells; Homo sapiens, A549, 3 min >450 nm light, 72 hours, read-out: Light IC50 A549): 21 µM | IC50 (A549 lung cancer cells; Homo sapiens, A549, read-out: Dark IC50 A549): 87.8 µM | Phototoxicity Index, PI A549 (A549 lung cancer cells): 4.2 | Light IC50 A549 spheroid (A549 tumor spheroids; 3 min >450 nm light, 72 hours): had no effect | IC50 (A549 tumor spheroids; Homo sapiens, A549, 3 min >450 nm light, 72 hours, read-out: Light IC50 A549 spheroid): > 300 µM | IC50 (A549 tumor spheroids; Homo sapiens, A549, read-out: Dark IC50 A549 spheroid): > 300 µM | MCR Index (A549 tumor spheroids): >14

N.N.[Cl][Pt][Cl] [Cisplatin, reference compound]
IC50 ([2]; HL-60, dark, read-out: IC50 Dark): 3.1 µM | IC50 ([2]; HL-60, light condition not given, read-out: IC50): 3.1 µM | IC50 ([2]; read-out: IC50 Blue (3 min), HL-60, 12 hours incubation, blue (>400 nm) light 3 min): 3.1 µM | plasmid DNA crosslinking in presence of increasing GSH (pUC19 plasmid [3]): reduced crosslinking efficacy | IC50 [1, 10]: 3.1 µM | IC50 ([1]; dark, read-out: Dark IC50 HL60): 3.1 µM | IC50 (A549 lung cancer cells; [11]): 3.4 µM | IC50 (A549 lung cancer cells; dark, read-out: Dark IC50 A549): 3.5 µM | IC50 (A549 tumor spheroids; [12]): 42 µM | activity light versus dark [4]: same activity under light and dark conditions | 55 kDa PARP fragment (marker for necrosis) (HL60 cells [5]): also produced this cleavage product | genomic DNA laddering (HL60 cells [6]): initiated DNA fragmentation resulting in a laddering pattern | IC50 ([7]; read-out: Dark IC50): 3.1 µM | IC50 ([7]; read-out: Light IC50): 3.1 µM

Cc1ccc2ccc3ccc(C)nc3c2n1.Cc1ccc2ccc3ccc(C)nc3c2n1.[Ru+2].c1ccc(-c2ccnc3c2ccc2c(-c4ccccc4)ccnc23)cc1 [Ru(dmphen)2bathophen]
IC50 ([7]; read-out: Dark IC50): 4.5 µM | IC50 ([7]; read-out: Light IC50): 1.7 µM | Phototoxicity Index [7]: 2.5

COc1cccc2c1C(=O)c1c(O)c3c(c(O)c1C2=O)C[C@@](O)(C(=O)CO)C[C@@H]3O[C@H]1C[C@H](N)[C@H](O)[C@H](C)O1 [doxorubicin, reference compound]
55 kDa PARP fragment (marker for necrosis) (HL60 cells [5]): also produced this cleavage product

Cc1ccc2ccc3ccc(C)nc3c2n1.Cc1ccc2ccc3ccc(C)nc3c2n1.[Ru+2].c1cnc2c(c1)c1nccnc1c1cccnc12 [Ru(dmphen)2dpq]
IC50 ([7]; read-out: Dark IC50): 250 µM | IC50 ([7]; read-out: Light IC50): 0.22 µM | Phototoxicity Index [7]: 1,130

Cc1ccc2ccc3ccc(C)nc3c2n1.[Ru+2].c1ccc(-c2ccccn2)nc1.c1ccc(-c2ccccn2)nc1 [Ru(bpy)2dmphen]
IC50 ([7]; read-out: Dark IC50): 8 µM | IC50 ([7]; read-out: Light IC50): 0.4 µM | Phototoxicity Index [7]: 20

[Ru+2].c1ccc(-c2ccccn2)nc1.c1ccc(-c2ccccn2)nc1.c1cnc2c(c1)ccc1cccnc12 [Compound 3, Ru(bpy)2phen]
IC50 [1, 10]: 81 µM | IC50 ([1]; dark, read-out: Dark IC50 HL60): 240 µM | Phototoxicity Index, PI HL60 [1]: 3 | IC50 (A549 lung cancer cells; [11]): 40 µM | IC50 (A549 lung cancer cells; dark, read-out: Dark IC50 A549): 250 µM | Phototoxicity Index, PI A549 (A549 lung cancer cells): 6.3 | IC50 (A549 tumor spheroids; [13]): > 300 µM | IC50 (A549 tumor spheroids; [12]): > 300 µM | MCR Index (A549 tumor spheroids): >7.5 | type of DNA damage upon visible light (pUC19 plasmid [8]): DNA photocleavage

Cc1cc(-c2ccccc2)c2ccc3c(-c4ccccc4)cc(C)nc3c2n1.[Ru+2].c1ccc(-c2ccccn2)nc1.c1ccc(-c2ccccn2)nc1 [Ru(bpy)2bathocuprione]
IC50 ([7]; read-out: Dark IC50): 27 µM | IC50 ([7]; read-out: Light IC50): 3.3 µM | Phototoxicity Index [7]: 8.18

Cc1ccc2c3nccnc3c3ccc(C)nc3c2n1.F[P-](F)(F)(F)(F)F.F[P-](F)(F)(F)(F)F.[Ru+2].c1ccc(-c2ccccn2)nc1.c1ccc(-c2ccccn2)nc1 [Compound 5, Ru(bpy)2dmdpq]
interaction with GSH [9]: did not interact with GSH | IC50 [1, 10]: 2.6 µM | IC50 ([1]; dark, read-out: Dark IC50 HL60): 108 µM | Phototoxicity Index, PI HL60 [1]: 216 | IC50 (A549 lung cancer cells; [11]): 1.2 µM | IC50 (A549 lung cancer cells; dark, read-out: Dark IC50 A549): 250 µM | Phototoxicity Index, PI A549 (A549 lung cancer cells): 208 | IC50 (A549 tumor spheroids; [13]): 64 µM and 64.6 µM | IC50 (A549 tumor spheroids; [12]): > 300 µM | MCR Index (A549 tumor spheroids): 54 | activity light versus dark [4]: light-triggered toxicity | IC50 values after irradiation ([4]; after irradiation): single μM IC50 values | IC50 ([4]; dark): > 100 µM | IC50 ([7]; read-out: Dark IC50): 250 µM | IC50 ([7]; read-out: Light IC50): 0.6 µM | Phototoxicity Index [7]: 400 | type of DNA damage upon visible light (pUC19 plasmid [8]): combination of these two mechanisms

Cc1ccc2ccc3ccc(C)nc3c2n1.Cc1ccc2ccc3ccc(C)nc3c2n1.[Ru+2].c1ccc2nc3c4cccnc4c4ncccc4c3nc2c1 [Ru(dmphen)2dppz]
IC50 ([7]; read-out: Dark IC50): 150 µM | IC50 ([7]; read-out: Light IC50): 0.5 µM | Phototoxicity Index [7]: 300

Ru(bpy)2dppz [Compound 7, reference compound]
Kb (CT DNA): 1e+07 M⁻¹

Cc1ccc2ccc3ccc(C)nc3c2n1.Cc1ccc2ccc3ccc(C)nc3c2n1.[Ru+2].c1ccc(-c2ccccn2)nc1 [Ru(dmphen)2bpy]
IC50 ([7]; read-out: Dark IC50): 150 µM | IC50 ([7]; read-out: Light IC50): 1.2 µM | Phototoxicity Index [7]: 125

Cc1ccc2ccc3ccc(C)nc3c2n1.Cc1ccc2ccc3ccc(C)nc3c2n1.[Ru+2].c1cnc2c(c1)ccc1cccnc12 [Ru(dmphen)2phen]
IC50 ([7]; read-out: Dark IC50): 35 µM | IC50 ([7]; read-out: Light IC50): 0.14 µM | Phototoxicity Index [7]: 250
